Patent US20260185163A1, “MEN1 MUTATIONS AND USES THEREOF” (DANA-FARBER CANCER INSTITUTE, INC., priority 2022, published 2026)

Columns and labels:
[1] = system: MEN1 M327I/M327I MV4;11 cells; test: dose-response assay, viable cell counts by flow cytometry; assay type: cell-based; conditions: Homo sapiens, 240 h; MV4;11 MEN1 M327I/M327I, 10 d of treatment
Experimental: MV4;11 and OCI-AML3 cell lines were passaged 24 h prior to nucleofection. The guide RNA (150 μmol) (sequence: 5′-[…]-3′) was added to Alt-R S.p. HiFi Cas9 nuclease (Integrated DNA Technologies) (125 μmol) followed by an incubation at room temperature (RT) for 20 min to allow formation of ribonucleoprotein (RNP) complexes. 2×10^5 cells were sedimented at 200 g for 10 min at RT, washed with PBS and resuspended in the SG Cell Line Nucleofector™ Solution (Lonza). […] Cells were replated in fresh medium+drug every 3 days and viable cells were counted using the LSRFortessa™ (BD Biosciences) flow cytometer. Cumulative cell growth was calculated over 28 days. […]
To determine Menin-inhibitor responses of MOLM13, MV4;11 or OCI-AML3 cell lines expressing MEN1 mutants, 3×10^3 cells were plated per well in a non-tissue culture treated 96-well plate. […] After 6 days, cells were split 1:7 and counts of viable cells in each well were determined after 10 d of treatment by flow cytometry (LSRFortessa™ with High-throughput sampler (HTS), BD Biosciences). Relative cell counts were calculated as % of DMSO control. The average of each triplicate was calculated and the mean of all replicates was plotted. […]

[2] = system: Menin-MLL1 target genes and myeloid differentiation programs in MEN1-M327I mutant MV4;11 cells; test: RNA-sequencing, gene expression changes; assay type: cell-based, human; conditions: 5 μM
Experimental: Total RNA was isolated from cell lines or mouse cell depleted PDX material using the RNeasy™ Mini Kit (QIAGEN). Quality control was performed using RNA-Tape™ (Agilent) and all samples used for sequencing passed QC with a RINe-score greater than 8. Poly(A) mRNA enrichment and library preparation was performed using the NEBNext Poly(A) mRNA Magnetic Isolation Module and NEBNext Ultra II RNA Library Prep kit (New England BioLabs) according to the manufacturer's instructions. Sequencing was done on an Illumina NextSeq500 platform as 37 bp paired end sequencing. Raw Illumina NextSeq BCL files were converted to FASTQ using Illumina bcl2fastq. Reads were aligned to human GRCh38/hg38 genome using STAR 2.7.5. Aligned BAM files were sorted, duplicate reads marked and removed, and deduplicated BAMs indexed using Broad picard tools v2.9.4. Raw per-gene counts were calculated with HTSeq-count (v.0.6.1pl). Differential RNA-seq expression was calculated using the BioConductor DESeq2 package (v1.24,0), using raw unnormalized per-gene counts from deduplicated BAMs. Z-scores for the generation of heatmaps were calculated from regularized gene-counts (from DeSeq2 package).

[3] = system: MEN1 M327I/WT MV4;11 cell lines; test: dose-response assay, viable cell counts by flow cytometry; assay type: cell-based, human; conditions: MV4;11 MEN1 M327I/WT
Experimental: MV4;11 and OCI-AML3 cell lines were passaged 24 h prior to nucleofection. The guide RNA (150 μmol) (sequence: 5′-[…]-3′) was added to Alt-R S.p. HiFi Cas9 nuclease (Integrated DNA Technologies) (125 μmol) followed by an incubation at room temperature (RT) for 20 min to allow formation of ribonucleoprotein (RNP) complexes. 2×10^5 cells were sedimented at 200 g for 10 min at RT, washed with PBS and resuspended in the SG Cell Line Nucleofector™ Solution (Lonza). Cells, Alt-R™ Cas9 Electroporation Enhancer (Lonza) (120 μmol) and the HDR donor oligonucleotide containing the MEN1-M327I mutation as well as a silent mutation at the protospacer adjacent motif (PAM) site (120 μmol) (sequence:5′-[…]-3′) were added to the RNP complex. For wildtype (WT) control, phosphate buffered saline (PBS) (Gibco™, Fisher Scientific) was added to the resuspended cells. Nucleofection was performed using a 16-well 20 μl Nucleocuvette™ stripe (Lonza) in a 4D-Nucleofector™ X Unit (Lonza) (program FF-100). Cells were incubated overnight in RPMI-1640+10% FCS+1% P/S containing 1 μM Alt-R™ HDR enhancer V2 (Lonza) (or DMSO for WT control). The following day, the medium was replaced by RPMI-1640+10% FBS+1% P/S. Single clones were selected in methylcellulose (MethoCult™ M3234, Stemcell™ Technologies) supplemented with 10% RPMI-1640, 10% FBS, 1% P/S and 25 nM SNDX-5613 (or DMSO for WT control), starting 3 days after nucleofection, and expanded in RPMI-1640+10% FCS+1% P/S supplemented with 25 nM SNDX-5613 (or DMSO for WT control). For the in vitro clonal selection assay of bulk nucleofected cells over time, 5×10^3 cells (3 replicates per condition) were seeded in RPMI-1640+10% FBS+1% P/S supplemented with 50 nM SNDX-5613 (or DMSO for WT control) 3 days after nucleofection. Cells were replated in fresh medium+drug every 3 days and viable cells were counted using the LSRFortessa™ (BD Biosciences) flow cytometer. Cumulative cell growth was calculated over 28 days. At each timepoint, cell pellets were frozen and genomic DNA was extracted subsequently using the DNeasy Blood and Tissue Kit™ (QIAGEN). Digital droplet-based PCR was performed from the genomic DNA to assess editing efficiency in the bulk cells over time. To analyze HDR efficiency in single cell clones, genomic DNA was PCR amplified using the Q5 High-Fidelity 2× Master Mix™ (New England BioLabs) and primers (forward: 5′-[…]-3′; reverse: 5′-[…]-3′), and the resulting 641 bp fragment containing the Cas9 cut site was gel-purified using the QIAquick Gel Extraction Kit™ (QIAGEN). Sanger sequencing was used to analyze HDR efficiency (primer 5′-[…]-3′).
To determine Menin-inhibitor responses of MOLM13, MV4;11 or OCI-AML3 cell lines expressing MEN1 mutants, 3×10^3 cells were plated per well in a non-tissue culture treated 96-well plate. The Menin-inhibitors were titrated on these cells in the following dose-range: DMSO, 3.9 nM, 7.813 nM, 15.625 nM, […], 62.5 nM, 125 nM, 250 nM, 500 nM, 1000 nM. Cells were treated in triplicates on each plate and the experiment was repeated 4 times. After 6 days, cells were split 1:7 and counts of viable cells in each well were determined after 10 d of treatment by flow cytometry (LSRFortessa™ with High-throughput sampler (HTS), BD Biosciences). Relative cell counts were calculated as % of DMSO control. The average of each triplicate was calculated and the mean of all replicates was plotted. Error bars represent the standard error of means (SEM).

[4] = system: CRISPR-Cas9 M327I-edited MV4;11 and OCI-AML3 cells; test: in vitro clonal selection assay, growth of bulk cell populations; assay type: cell-based, human; conditions: 50 nM
Experimental: (§1) MV4;11 and OCI-AML3 cell lines were passaged 24 h prior to nucleofection. The guide RNA (150 μmol) (sequence: 5′-[…]-3′) was added to Alt-R S.p. HiFi Cas9 nuclease (Integrated DNA Technologies) (125 μmol) followed by an incubation at room temperature (RT) for 20 min to allow formation of ribonucleoprotein (RNP) complexes. 2×10^5 cells were sedimented at 200 g for 10 min at RT, washed with PBS and resuspended in the SG Cell Line Nucleofector™ Solution (Lonza). Cells, Alt-R™ Cas9 Electroporation Enhancer (Lonza) (120 μmol) and the HDR donor oligonucleotide containing the MEN1-M327I mutation as well as a silent mutation at the protospacer adjacent motif (PAM) site (120 μmol) (sequence:5′-[…]-3′) were added to the RNP complex. For wildtype (WT) control, phosphate buffered saline (PBS) (Gibco™, Fisher Scientific) was added to the resuspended cells. Nucleofection was performed using a 16-well 20 μl Nucleocuvette™ stripe (Lonza) in a 4D-Nucleofector™ X Unit (Lonza) (program FF-100). Cells were incubated overnight in RPMI-1640+10% FCS+1% P/S containing 1 μM Alt-R™ HDR enhancer V2 (Lonza) (or DMSO for WT control). […] Cells were replated in fresh medium+drug every 3 days and viable cells were counted using the LSRFortessa™ (BD Biosciences) flow cytometer. Cumulative cell growth was calculated over 28 days. […]

[5] = system: unedited MV4;11 and OCI-AML3 cells; test: as above; assay type: cell-based, human; conditions: 50 nM
Experimental: as §1

Which IC50 [1] does the source give for `CCN(C(=O)c1cc(F)ccc1Oc1cncnc1N1CC2(CCN(C[C@H]3CC[C@H](NS(=O)(=O)CC)CC3)CC2)C1)C(C)C` [SNDX-5613, revumenib] here?
The IC50 was > 1000 nM.

What about the “repression of Menin-MLL1 target genes and induction of myeloid differentiation programs” value [2] of the same compound?
The value was “only a partial response”.

What about the “increase of IC50 compared to MEN1-wild-type cells” value [3] of the same compound?
The value was 16 fold.

What about the cell growth [4] of the same compound?
Its cell growth is “continued growing beyond 28 days”.

What about the cell growth [5] of the same compound?
Its cell growth is “stopped dividing shortly after exposure”.
